# Where two headings read alike, the source gives them in different places.
# Legend:
# [1] = system: MDA-MB-435 breast carcinoma; assay: Anchorage Dependent Growth Monolayer Assay (ADGMA), MTS readout; format: cell-based; settings: average ± S.D., 3-day exposure, A490
# Text: As indicated above, all of the compounds of formula I, and their corresponding pharmaceutically acceptable acid addition salts, are anti-tumor agents and are, therefore, useful in inhibiting the growth of various lymphomas, sarcomas, carcinomas, myelomas, and leukemia cell lines. […] This assay was adapted from the 60 cell line assay used by the National Cancer Institute (NCI) with the following modifications: 1) a single cell line representative for the important tumor type, viz., MDA-MB-435 breast carcinoma was utilized; 2) a tetrazolium derivative, viz., MTS, was utilized to determine cell density.
# The ADGMA compares the number of viable cells following a 3-day exposure to a test compound relative to a number of cells present at the time the test compound was added. […] The absorbance at 490 nm (A490) of the formazan derivative is proportional to the number of viable cells. The IC50 for a test compound is the concentration of compound required to reduce the final cell number to 50% of the final control cell number. If cell proliferation is inhibited, the assay further defines compounds as cytostatic (cell number after 3-day compound incubation >cell number at time of compound addition) or cytotoxic (cell number after 3-day compound incubation <cell number at time of compound addition).
# The MDA-MB-435 breast carcinoma line was obtained from the American Type Culture Collection (ATCC) and used between passages 4-20 following thawing. MDA-MB-435 breast carcinoma was maintained and plated in DME/F12 medium containing 10% fetal bovine serum, 15 mM HEPES (pH=7.4), penicillin 100 units/mL, and streptomycin 100 µg/mL.
# Cell lines are trypsinized and counted using a Coulter counter to determine plating densities. Cells are then plated in their respective maintenance media (100 µL/well) in 96 well plates at the following densities: MDA-MB-435, 3,000 cells/well. The number of cells plates as determined in preliminary experiments, results in cell densities of 75-90% of confluency by 4 days after plating. Initial cell densities, assayed one day after plating, are roughly 0.15-0.20 absorbance units greater than the media blank. Ninety-six well plates are seeded on day 0 and the test compounds are added on day 1. A control plate is created for each cell line that receives media only in row A and cells in row B. One day following plating, test compounds are added (in a final volume of 100 µL) to the test plates. Control plates receive 10 µL MTS mixture (prepared fresh on day of addition to cell plates at a ratio of 10 µL of a 0.92 mg/mL solution of PMS to a 190 µL of a 2 mg/mL solution of MTS) and 100 µL media. A490 of control plates is read 4h after MTS addition to determine initial cell density values for each cell line. Three days after addition of test compound, 10 µL/well of MTS mixture is added to the test plates and A490 is read 4h later. A490 values for wells containing cells are corrected for media absorbance, then normalized to initial density readings to determine percent net growth. IC50 values are determined from graphs of percent net growth as a function of compound concentration. Percent net growth is calculated as (Cell + Drug A490 - Initial A490/Cell + Drug Vehicle A490 - Initial A490).
# [2] = Water solubility
# [3] = system: MDA-MB-435 tumor xenografts; assay: Human tumor xenograft growth inhibition in athymic nude mouse model; format: in vivo, athymic (nu/nu) mice
# Procedure: The histologic tumor type employed was MDA-MB-435 breast carcinoma.
# Positive controls are carried out with doxorubicin administered 3 times per week i.v.
# Anti-tumor activity was expressed as %T/C (Δ MTV of treated group ö Δ MTV of control group X100).
# [4] = 10 µmol/kg i.v., 3X/week for 3 weeks
# [5] = 33 µmol/kg i.v., 3X/week for 3 weeks
# [6] = 100 µmol/kg i.v., 3X/week for 3 weeks
# [7] = Mus musculus, MDA-MB-435, iv, 504 h, read-out: %T/C
# [8] = Mus musculus, MDA-MB-435, iv, 504 h, 10 µmol/kg i.v., 3X/week for 3 weeks, * = statistically significant (p=<0.05), read-out: %T/C
# [9] = Mus musculus, MDA-MB-435, iv, 504 h, 33 µmol/kg i.v., 3X/week for 3 weeks, * = statistically significant (p=<0.05), read-out: %T/C
# [10] = 2 mg/kg i.v., 3X/week for 3 weeks (positive control)
Molecule,"IC50 ([1]; Homo sapiens, MDA-MB-435, 72 h) [nM]",solubility [2] [µg/mL],"Dead/Total [3, 4]","Δ MTV [3, 4] [mm^3]","Dead/Total [3, 5]","Δ MTV [3, 5] [mm^3]","Dead/Total [3, 6]","Δ MTV [3, 6] [mm^3]","response vs control in vivo at 10 µmol/kg [3, 7] [%]","response vs control in vivo at 33 µmol/kg [3, 7] [%]","response vs control in vivo at 100 µmol/kg [3, 7] [%]","response vs control in vivo at 10 µmol/kg [3, 8] [%]","response vs control in vivo at 33 µmol/kg [3, 9] [%]",IC50 [1] [nM],"Dead/Total [3, 10]","Δ MTV [3, 10] [mm^3]","response vs control in vivo at 2 mg/kg ([3]; Mus musculus, MDA-MB-435, iv, 504 h, 2 mg/kg i.v., 3X/week for 3 weeks (positive control), * = statistically significant (p=<0.05), read-out: %T/C) [%]"
"CO[C@@H](C(=O)N[C@H]1CC[C@@H](OC(=O)C2CCCCC2)CNC1=O)[C@H](O)[C@@H](O)[C@H](O)/C=C/C(C)(C)C [Ex. 1, (2R, 3R, 4S, 5R, 6E)-3,4,5-trihydroxy-2-methoxy-8,8-dimethyl-N-[(3S, 6R)-hexahydro-2-oxo-6-(cyclohexylcarbonyl)oxy-2H-azepin-3-yl]non-6-enamide]",68 ± 40,3700,0/8,107,0/8,43,0/8,-11,61,24,-6,–,–,–,–,–,–
CO[C@@H](C(=O)N[C@H]1CC[C@@H](OC(=O)C2CCCCCC2)CNC1=O)[C@H](O)[C@@H](O)[C@H](O)/C=C/C(C)(C)C [Ex. 3],32 ± 14,–,0/8,69,0/8,49,–,–,–,–,–,39,28,–,–,–,–
"CO[C@@H](C(=O)N[C@H]1CC[C@@H](OC(=O)CCc2cccnc2)CNC1=O)[C@H](O)[C@@H](O)[C@H](O)/C=C/C(C)(C)C [Ex. 5, (2R, 3R, 4S, 5R, 6E)-3,4,5-trihydroxy-2-methoxy-8,8-dimethyl-N-[(3S, 6R)-hexahydro-2-oxo-6-(1-oxo-3-[3-pyridyl]propoxy)-2H-azepin-3-yl]non-6-enamide]",465 ± 204,–,0/8,130,0/8,62,–,–,–,–,–,92,44,–,–,–,–
"CO[C@@H](C(=O)N[C@H]1CC[C@@H](OC(=O)CC2CCCCC2)CNC1=O)[C@H](O)[C@@H](O)[C@H](O)/C=C/C(C)(C)C [Ex. 6, (2R, 3R, 4S, 5R, 6E)-3,4,5-trihydroxy-2-methoxy-8,8-dimethyl-N-[(3S, 6R)-hexahydro-2-oxo-6-(cyclohexylmethylcarbonyl)oxy-2H-azepin-3-yl]non-6-enamide]",65 ± 1,–,0/8,66,0/8,48,–,–,–,–,–,47,34,–,–,–,–
"CO[C@@H](C(=O)N[C@H]1CC[C@@H](OC(=O)Cc2ccccc2)CNC1=O)[C@H](O)[C@@H](O)[C@H](O)/C=C/C(C)(C)C [Ex. 7, (2R, 3R, 4S, 5R, 6E)-3,4,5-trihydroxy-2-methoxy-8,8-dimethyl-N-[(3S, 6R)-hexahydro-2-oxo-6-(1-oxo-2-phenylethoxy)-2H-azepin-3-yl]non-6-enamide]",262 ± 70,–,0/8,101,0/8,61,–,–,–,–,–,72,43,–,–,–,–
"CO[C@@H](C(=O)N[C@H]1CC[C@@H](OC(=O)Cc2ccc(Cl)c(Cl)c2)CNC1=O)[C@H](O)[C@@H](O)[C@H](O)/C=C/C(C)(C)C [Ex. 8, (2R, 3R, 4S, 5R, 6E)-3,4,5-trihydroxy-2-methoxy-8,8-dimethyl-N-[(3S, 6R)-hexahydro-2-oxo-6-(1-oxo-2-[3,4-dichlorophenyl]ethoxy)-2H-azepin-3-yl]non-6-enamide]",175 ± 7,–,0/8,87,0/8,94,–,–,–,–,–,62,67,–,–,–,–
"COc1ccc(CC(=O)O[C@@H]2CC[C@H](NC(=O)[C@H](OC)[C@H](O)[C@@H](O)[C@H](O)/C=C/C(C)(C)C)C(=O)NC2)cc1 [Ex. 9, (2R, 3R, 4S, 5R, 6E)-3,4,5-trihydroxy-2-methoxy-8,8-dimethyl-N-[(3S, 6R)-hexahydro-2-oxo-6-(1-oxo-2-[4-methoxyphenyl]ethoxy)-2H-azepin-3-yl]non-6-enamide]",335 ± 141,–,0/8,107,0/8,68,–,–,–,–,–,76,48,–,–,–,–
"CCCCCCCCCCOc1ccc(C(=O)O[C@@H]2CC[C@H](NC(=O)[C@H](OC)[C@H](O)[C@@H](O)[C@H](O)/C=C/C(C)(C)C)C(=O)NC2)cc1 [Ex. 10, (2R, 3R, 4S, 5R, 6E)-3,4,5-trihydroxy-2-methoxy-8,8-dimethyl-N-[(3S, 6R)-hexahydro-2-oxo-6-([4-n-decyloxyphenyl]carbonyl)oxy-2H-azepin-3-yl]non-6-enamide]",8 ± 4,–,0/8,115,0/8,4,–,–,–,–,–,64,2,–,–,–,–
CO[C@@H](C(=O)N[C@H]1CC[C@@H](OC(=O)/C=C/c2ccccc2)CNC1=O)[C@H](O)[C@@H](O)[C@H](O)/C=C/C(C)(C)C [Ex. 11],19 ± 5,–,0/8,135,0/8,76,–,–,76,43,–,–,–,–,–,–,–
"CCCCCCCCCCc1ccc(C(=O)O[C@@H]2CC[C@H](NC(=O)[C@H](OC)[C@H](O)[C@@H](O)[C@H](O)/C=C/C(C)(C)C)C(=O)NC2)cc1 [Ex. 12, (2R, 3R, 4S, 5R, 6E)-3,4,5-trihydroxy-2-methoxy-8,8-dimethyl-N-[(3S, 6R)-hexahydro-2-oxo-6-([4-n-decylphenyl]carbonyl)oxy-2H-azepin-3-yl]non-6-enamide]",34 ± 46,–,0/8,78,0/8,11,–,–,52,7,–,–,–,–,–,–,–
"CO[C@@H](C(=O)N[C@H]1CC[C@@H](OC(=O)Cc2ccsc2)CNC1=O)[C@H](O)[C@@H](O)[C@H](O)/C=C/C(C)(C)C [Ex. 13, (2R, 3R, 4S, 5R, 6E)-3,4,5-trihydroxy-2-methoxy-8,8-dimethyl-N-[(3S, 6R)-hexahydro-2-oxo-6-(1-oxo-3-[3-thiophenyl]ethoxy)-2H-azepin-3-yl]non-6-enamide]",–,–,–,–,–,–,–,–,–,–,–,–,–,300,–,–,–
"COc1cccc2c1C(=O)c1c(O)c3c(c(O)c1C2=O)C[C@@](O)(C(=O)CO)C[C@@H]3O[C@H]1C[C@H](N)[C@H](O)[C@H](C)O1 [doxorubicin, reference compound]",137 ± 105,–,–,–,–,–,–,–,–,–,–,–,–,–,0/8,74,42
"(2R, 3R, 4S, 5R, 6E)-3,4,5-trihydroxy-2-methoxy-8,8-dimethyl-N-[(3S, 6R)-hexahydro-2-oxo-6-(1-oxo-3-[3-indolyl]ethoxy)-2H-azepin-3-yl]non-6-enamide [Ex. 14]",–,–,–,–,–,–,–,–,–,–,–,–,–,1240 ± 200,–,–,–
